The values that follow are results of earlier work, collected in publication PMC6006448 (ACS Chemical Biology, 2018).

The subject of the data set is Rac1 and Cdc42.

Consider `COc1ccc2cc([C@@H](C)C(=O)O)ccc2c1` [R-naproxen], for which the “action on Rac1 and Cdc42 in a cellular setting” value was “inhibitor”.
